From ChEMBL document CHEMBL1201862, “PubChem BioAssay data set” (2004)
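Test compounds were applied to cells in 96-well plates for 48 hours at 5 doses. GI50 marks 50% less growth.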 The source made the active and inactive calls. Rule as the data show it: active = GI50 up to about 1.1 µM and inactive = higher.

Assays:
Experiment in all cases: NCI-60 cell line screen, 48 h
COLO 205 = tested on: COLO 205
EKVX = tested on: EKVX
HCC 2998 = tested on: HCC 2998
HL-60 = tested on: HL-60
HOP-62 = tested on: HOP-62
IGROV-1 = tested on: IGROV-1
KM-20L2 = tested on: KM-20L2
M14 = tested on: M14
OVCAR-3 = tested on: OVCAR-3
RPMI-8226 = tested on: RPMI-8226
SF-539 = tested on: SF-539
SK-MEL-5 = tested on: SK-MEL-5
SN12C = tested on: SN12C
SNB-19 = tested on: SNB-19
SNB-75 = tested on: SNB-75
SNB-78 = tested on: SNB-78
SR = tested on: SR
SW-620 = tested on: SW-620
TK-10 = tested on: TK-10
UO-31 = tested on: UO-31

Measured: GI50

c1ccc([P+](Cc2csnn2)(c2ccccc2)c2ccccc2)cc1
inactive: COLO 205 > 100 µM | EKVX > 100 µM | HCC 2998 > 100 µM | HL-60 > 100 µM | HOP-62 > 100 µM | IGROV-1 > 100 µM | KM-20L2 > 100 µM | M14 > 100 µM | OVCAR-3 > 100 µM | RPMI-8226 > 100 µM | SF-539 > 100 µM | SK-MEL-5 > 100 µM | SN12C > 100 µM | SNB-19 > 100 µM | SNB-75 > 100 µM | SNB-78 > 100 µM | SR > 100 µM | SW-620 > 100 µM | TK-10 > 100 µM | UO-31 > 100 µM

COc1ccccc1NC(=O)C(=O)C(C(=O)c1ccccc1F)C1OC(=O)c2ccccc21 (stereo not drawn)
inactive: COLO 205 19.2 µM | EKVX 27.9 µM | HCC 2998 14.8 µM | HL-60 20.3 µM | HOP-62 30.5 µM | IGROV-1 52.6 µM | KM-20L2 24.9 µM | M14 27.5 µM | RPMI-8226 20.2 µM | SF-539 20.8 µM | SK-MEL-5 39.1 µM | SN12C 24.2 µM | SNB-19 19.3 µM | SNB-75 21.9 µM | SNB-78 25.5 µM | SR 22.2 µM | SW-620 32.9 µM | TK-10 50 µM | UO-31 32.4 µM

CC1(Cl)CC2C(CC1Sc1nnnn1-c1ccccc1)C2(C)C (stereo not drawn)
inactive: COLO 205 83.8 µM | EKVX 28.1 µM | HCC 2998 > 100 µM | HL-60 17.9 µM | HOP-62 > 100 µM | IGROV-1 > 100 µM | KM-20L2 95.5 µM | M14 > 100 µM | OVCAR-3 38.7 µM | RPMI-8226 27.8 µM | SF-539 > 100 µM | SK-MEL-5 58.2 µM | SN12C > 100 µM | SNB-19 83.2 µM | SNB-78 92.7 µM | SR 29.6 µM | SW-620 > 100 µM | TK-10 > 100 µM | UO-31 37.5 µM

COc1c(O)c(C=O)c2c(O)c(-c3c(C)cc4c(C(C)C)c(OC)c(O)c(C=O)c4c3O)c(C)cc2c1C(C)C [6,6'-METHOXYGOSSYPOL]
inactive: COLO 205 1.89 µM | EKVX 4.86 µM | HCC 2998 2.65 µM | HL-60 4.46 µM | HOP-62 2.98 µM | IGROV-1 5.47 µM | KM-20L2 6.01 µM | M14 9.86 µM | OVCAR-3 3.37 µM | RPMI-8226 4.32 µM | SF-539 4.36 µM | SK-MEL-5 9.23 µM | SN12C 2.74 µM | SNB-19 3.88 µM | SNB-75 2.4 µM | SNB-78 25.3 µM | SR 4.4 µM | SW-620 5.33 µM | TK-10 6.71 µM | UO-31 3.3 µM
